Reference: ChEMBL document CHEMBL1124119, “(+/-)-4-tert-butyl-3-cyano-1-(4-ethynylphenyl)-2,6,7-trioxabi cyclo[2.2.2]octane: synthesis of a remarkably potent GABAA receptor antagonist” (J Med Chem, 1988)

Experiments:
[1] = target: Gamma-aminobutyric acid receptor subunit gamma-1 (Rattus norvegicus, UniProt P23574); assay: Inhibition of GABA-stimulated 36Cl- uptake by membrane vesicles of rat cerebral cortex; type: functional, tissue-based
[2] = target: GABA-A receptor; anion channel; assay: In vitro inhibition of [35S]-TBPS binding to EDTA/water-dialyzed mouse brain P2 membranes; type: tissue-based
[3] = target: GABA-A receptor; anion channel; assay: In vitro inhibition of [35S]TBPS binding to EDTA/water-dialyzed mouse brain P2 membranes; type: tissue-based
[4] = target: T1, GABA-A receptor; anion channel (Mus musculus) (UniProt Q8BHJ7+P26048+Q8QZW7+P50571+Q9R0Y8+P22723+A2AMW3+P62812+Q9JLF1+P26049+P22933+Q9D6F4+P63080+P27681+P16305); assay: Ex vivo inhibition of [35S]TBPS binding to mouse brain membranes in the presence of Diazepam after 30 min; type: tissue-based; details: Membrane
[5] = target: T1, GABA-A receptor; anion channel (Mus musculus); assay: Ex vivo inhibition of [35S]TBPS binding to mouse brain membranes in the presence of phenobarbital after 30 min; type: tissue-based; details: Membrane
[6] = target: T1, GABA-A receptor; anion channel (Mus musculus); assay: Ex vivo inhibition of [35S]TBPS binding to mouse brain membranes after 30 min; type: tissue-based; details: Membrane

Chain of Gamma-aminobutyric acid receptor subunit gamma-1 (P23574 whole entry): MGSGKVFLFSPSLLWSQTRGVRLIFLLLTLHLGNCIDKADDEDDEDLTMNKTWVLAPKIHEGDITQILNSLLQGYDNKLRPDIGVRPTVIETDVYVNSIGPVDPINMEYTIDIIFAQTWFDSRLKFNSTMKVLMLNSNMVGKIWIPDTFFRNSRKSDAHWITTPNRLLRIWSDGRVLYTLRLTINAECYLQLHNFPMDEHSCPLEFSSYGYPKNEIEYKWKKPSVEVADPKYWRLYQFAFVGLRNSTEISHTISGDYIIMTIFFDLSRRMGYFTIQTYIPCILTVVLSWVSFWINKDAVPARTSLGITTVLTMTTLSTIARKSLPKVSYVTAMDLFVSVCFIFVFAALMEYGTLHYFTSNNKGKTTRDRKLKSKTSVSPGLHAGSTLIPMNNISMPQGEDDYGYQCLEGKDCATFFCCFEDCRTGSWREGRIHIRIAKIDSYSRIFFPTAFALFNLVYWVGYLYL

Structure (SMILES) | IC50 [1] [nM] | IC50 [2] [nM] | IC50 [3] [nM] | inhibition [4] [%] | inhibition [5] [%] | inhibition [6] [%]
CC(C)(C)C12COC(c3ccc(C#N)cc3)(OC1)OC2 | 40 | 2.5 | – | – | – | –
C#Cc1ccc(C23OCC(C(C)(C)C)(CO2)C(C#N)O3)cc1 (configuration not stated) | 25 | – | 0.25 | 59 | 61 | 68
